Test results as given in PubChem BioAssay (NCI).
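Cultured in 96-well plates, cells were exposed to test compound for 48 hours across five concentrations. GI50: concentration for 50% inhibition of growth. TGI denotes the concentration required for complete inhibition of growth.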

Tests used:
Experiment in all cases: NCI-60 cell line screen, 48 h
IGROV1 ovarian = system: IGROV1 ovarian
MDA-N = system: MDA-N
UACC-62 melanoma = system: UACC-62 melanoma
SK-OV-3 ovarian = system: SK-OV-3 ovarian
SF-295 CNS = system: SF-295 CNS
SN12C renal = system: SN12C renal
M14 melanoma = system: M14 melanoma
SNB-75 CNS = system: SNB-75 CNS
UO-31 renal = system: UO-31 renal
RXF 393 renal = system: RXF 393 renal

SMILES	TGI (IGROV1 ovarian) [µM]	TGI (MDA-N) [µM]	TGI (UACC-62 melanoma) [µM]	TGI (SK-OV-3 ovarian) [µM]	TGI (SF-295 CNS) [µM]	TGI (SN12C renal) [µM]	TGI (M14 melanoma) [µM]	TGI (SNB-75 CNS) [µM]	TGI (UO-31 renal) [µM]	TGI (RXF 393 renal) [µM]	GI50 (IGROV1 ovarian) [µM]	GI50 (UACC-62 melanoma) [µM]	GI50 (SK-OV-3 ovarian) [µM]	GI50 (SF-295 CNS) [µM]	GI50 (SN12C renal) [µM]	GI50 (M14 melanoma) [µM]	GI50 (SNB-75 CNS) [µM]	GI50 (UO-31 renal) [µM]	GI50 (RXF 393 renal) [µM]
COC(=O)c1ccccc1/C=C1\Cc2ccc3c(c2C1=O)CCCC3	> 100	> 100	> 100	> 100	> 100	> 100	> 100	> 100	> 100	–	–	–	–	–	–	–	–	–	–
C=CCOC(OCC=C)/C(Br)=C/C	–	> 100	> 100	> 100	> 100	> 100	> 100	> 100	> 100	> 100	–	–	–	–	–	–	–	–	–
C=CCN1/C(=C2\SC(=S)N(c3ccc(C)cc3)C2=O)Sc2c1ncn(C)c2=O	> 100	–	> 100	> 100	> 100	> 100	> 100	> 100	> 100	–	–	–	–	–	–	–	–	–	–
CCOC(=O)[C@@]1(C)CC(O)C(=O)N1C (some centres not stated)	> 100	–	> 100	> 100	> 100	> 100	> 100	–	> 100	> 100	–	–	–	–	–	–	–	–	–
S=c1nc(N/N=C/c2cccs2)c2cn[nH]c2[nH]1	75.1	–	> 100	> 100	41.4	> 100	> 100	> 100	> 100	> 100	–	–	–	–	–	–	–	–	–
CCN(CC)CC1CN=C(N)O1 (configuration not stated)	> 100	> 100	> 100	–	> 100	> 100	> 100	> 100	> 100	> 100	–	–	–	–	–	–	–	–	–
O=C(CN1CCCCC1)Nc1ccc2c(c1)C1Oc3ccccc3CC1CO2 (configuration not stated)	58	36.7	34.1	81.9	36.4	> 100	32.3	–	72.7	–	–	–	–	–	–	–	–	–	–
O=C(N/N=C\c1cccc2ccccc12)Nc1cccc2ccccc12	> 100	21.2	–	–	–	> 100	> 100	35.2	> 100	43.4	–	–	–	–	–	–	–	–	–
O=C(c1cccs1)N1CCCN(C(=O)c2cccs2)C1=S	> 100	–	> 100	> 100	> 100	> 100	> 100	–	> 100	> 100	–	–	–	–	–	–	–	–	–
COC(=O)CNC(=O)CCC(C)[C@H]1CCC2C3C(C[C@H](OC(C)=O)[C@@]21C)[C@@]1(C)CCC2(C[C@H]1C[C@H]3OC(C)=O)OOC1(CC[C@]3(C)C4C[C@H](OC(C)=O)[C@@]5(C)C(CC[C@@H]5C(C)CCC(=O)NCC(=O)OC)C4[C@H](OC(C)=O)C[C@@H]3C1)OO2 (some centres not stated)	1.91	> 50	–	13.9	24.7	–	7.96	5.17	1.51	–	–	–	–	–	–	–	–	–	–
COC(=O)C1CCC(=O)N1C(c1cc(OC)c(OC)c(OC)c1)c1cccc2ccccc12 (configuration not stated)	> 100	> 100	> 100	> 100	> 100	> 100	> 100	> 100	> 100	–	–	–	–	–	–	–	–	–	–
Cc1cc(Nc2ccc(NS(C)(=O)=O)cc2)c2c(ccc3nccc32)[nH]1	86.3	31.5	30.7	–	60.5	38.9	31.1	–	> 100	–	–	–	–	–	–	–	–	–	–
CCOC(=O)C(=CNC(=S)N=Nc1c(O)[nH]c2ccccc12)C(=O)OCC	–	> 100	> 100	> 100	> 100	> 100	> 100	> 100	> 100	> 100	–	–	–	–	–	–	–	–	–
Cc1ccc(-c2cc[n+]3c(n2)oc2ccccc23)cc1	> 100	> 100	97.7	> 100	> 100	> 100	84.5	65.3	> 100	–	–	–	–	–	–	–	–	–	–
CN(C)CCOc1ccc(-c2c(Oc3ccccc3)c(=O)oc3ccccc23)cc1	25.2	4.7	27.2	–	17.2	26.9	4.63	23.6	19.9	17.6	–	–	–	–	–	–	–	–	–
CC(=O)O[C@H]1C(=O)[C@@]2(C)[C@H]([C@H](OC(=O)c3ccccc3)[C@]3(O)C[C@H](OC(=O)[C@H](O)[C@@H](NC(=O)c4ccccc4)c4cccc(N(C)C)c4)C(C)=C1C3(C)C)[C@]1(OC(C)=O)CO[C@@H]1C[C@@H]2O	> 75	0.0238	> 50.2	> 28.6	1.14	> 75	–	> 36.1	> 64.6	1.24	–	–	–	–	–	–	–	–	–
Cc1cc(OCCOCCC(F)(F)P(=O)(O)O)ccc1CCc1cnc2c(N)nc3cc(CCC(=O)O)ccc3c2c1	> 100	–	> 100	> 100	> 100	> 100	> 100	> 100	> 100	> 100	> 100	> 100	> 100	> 100	> 100	> 100	14	> 100	> 100
CN(CCCNC(=O)c1nn(C)c2c1Cc1ccccc1-2)CCCNC(=O)c1nn(C)c2c1Cc1ccccc1-2	35	–	35.9	34.1	34.7	33.8	14.5	31.5	5.58	34.3	–	–	–	–	–	–	–	–	–
COC(=O)[C@]1(c2ccc(N(C)C)cc2OC)C[C@@H]2CCCN(CCc3c1[nH]c1ccccc31)C2	48	–	32.4	> 61.4	> 60.7	41	–	22.3	33.2	37.9	–	–	–	–	–	–	–	–	–
Cc1nc2ccc(F)cc2c(Cl)c1CCCl	> 100	–	94.6	–	> 100	–	–	> 100	> 100	79.9	–	–	–	–	–	–	–	–	–
O=C(c1cccnc1)N1N=C(c2ccccc2)CC1(O)c1cc(F)c(Cl)cc1Cl (configuration not stated)	59.9	> 100	–	> 100	36.9	39.6	53.7	52.9	> 100	34.9	–	–	–	–	–	–	–	–	–
C=CC(C)C1(CCCOCc2ccccc2)C(=S)N2CCC3(CC24CCCC14)OCCO3 (configuration not stated)	> 100	–	> 100	> 100	> 100	> 100	–	5.82	> 100	> 100	–	–	–	–	–	–	–	–	–
